Read-outs that look alike come from different tables or passages of the source.
How the values were obtained:
Type in all cases: biochemical
[1] = biological target: Human Aldose Reductase (Homo sapiens, UniProt P15121); assay: Human Aldose Reductase Inhibition
[2] = biological target: Rat Aldose Reductase (Rattus norvegicus, UniProt P07943); assay: Rat Aldose Reductase Inhibition; conditions: for inhibition at 100 µM: 10^-4, read-out: In vitro Aldose Reductase Inhibition; for inhibition at 10 µM: 10^-5, read-out: In vitro Aldose Reductase Inhibition; for inhibition at 1 µM: 10^-6, read-out: In vitro Aldose Reductase Inhibition; for inhibition at 0.1 µM: 10^-7, read-out: In vitro Aldose Reductase Inhibition; for inhibition at 0.01 µM: 10^-8, read-out: In vitro Aldose Reductase Inhibition
From the text: Biophysical Chemistry, 8 (1978) 81-85; P. F. Kador, L. O. Merola and J. H
Kinoshita Documenta Ophthamologica, 18 (1979) 117.

[3] = tested on: aldose reductase; assay: aldose reductase inhibition of spiro-xanthene-imidazolidines (in words)
[4] = 10^-4, human, read-out: In vitro Aldose Reductase Inhibition
[5] = 10^-5, human, read-out: In vitro Aldose Reductase Inhibition
[6] = 10^-6, human, read-out: In vitro Aldose Reductase Inhibition
[7] = read-out: In vitro Aldose Reductase Inhibition

O=C1NC(=O)C2(N1)c1ccccc1-c1ccc([N+](=O)[O-])cc12 (racemic) [C, dl-Spiro-[2-nitrofluoren-9,4'-imidazolidine]-2',5'-dione]
inhibition at 100 µM [1, 4]: 65%
inhibition at 10 µM [1, 5]: 20%
inhibition at 1 µM [1, 6]: 8%

O=C1NC(=O)C2(N1)c1ccccc1-c1ccc(Br)cc12 (racemic) [E, dl-Spiro-[2-bromofluoren-9,4'-imidazolidine]-2', 5'-dione]
inhibition at 100 µM [2]: 100%
inhibition at 10 µM [2]: 82%
inhibition at 1 µM [2]: 62%
inhibition at 0.1 µM [2]: 33%
inhibition at 0.01 µM [2]: 8%

Nc1cccc2c1-c1ccccc1C21NC(=O)NC1=O (racemic) [G, dl-Spiro-[4-aminofluoren-9,4'-imidazolidine]-2',5'-dione]
inhibition at 100 µM [1, 4]: 50%
inhibition at 10 µM [1, 5]: 28%
inhibition at 1 µM [1, 6]: 20%

Nc1ccc2c(c1)C1(NC(=O)NC1=O)c1ccccc1-2 (racemic) [H, dl-Spiro-[2-aminofluoren-9,4'-imidazolidine]-2',5'-dione]
inhibition at 100 µM [1, 4]: 43%
inhibition at 10 µM [1, 5]: 31%
inhibition at 1 µM [1, 6]: 0%

O=C1NC(=O)C2(N1)c1ccccc1-c1ccc(I)cc12 (racemic) [J, dl-Spiro-[2-iodofluoren-9,4'-imidazolidine]-2',5'-dione]
inhibition at 100 µM [1, 4]: 94%
inhibition at 10 µM [1, 5]: 88%
inhibition at 1 µM [1, 6]: 77%
inhibition at 0.1 µM ([1]; 10^-7, human, read-out: In vitro Aldose Reductase Inhibition): 39%
inhibition at 0.01 µM ([1]; 10^-8, human, read-out: In vitro Aldose Reductase Inhibition): 0%

Cc1cccc2c1C1(NC(=O)NC1=O)c1ccccc1-2 (racemic) [K, dl-Spiro-[1-methylfluoren-9,4'-imidazolidine]-2',5'-dione]
inhibition at 100 µM [2]: 96%
inhibition at 10 µM [2]: 85%
inhibition at 1 µM [2]: 47%
inhibition at 0.1 µM [2]: 6%

O=C1NC(=O)C2(N1)c1ccccc1-c1ccc(C(=O)O)cc12 (racemic) [N, dl-Spiro-[2-carboxyfluoren-9,4'-imidazolidine]-2',5'-dione]
inhibition at 100 µM [2]: 89%
inhibition at 10 µM [2]: 54%
inhibition at 1 µM [2]: 0%

CSc1ccc2c(c1)C1(NC(=O)NC1=O)c1ccccc1-2 (racemic) [P, dl-Spiro-[2-methylthiofluoren-9,4'-imidazolidine]-2',5'-dione]
IC50 [2]: 420 nM

C[S+]([O-])c1ccc2c(c1)C1(NC(=O)NC1=O)c1ccccc1-2 (racemic) [Q, Spiro-[2-(R,S)-methylsulfinylfluoren-9, (R,S)-4'-imidazolidine]-2',5'-dione]
IC50 [2]: 1700 nM

CS(=O)(=O)c1ccc2c(c1)C1(NC(=O)NC1=O)c1ccccc1-2 (racemic) [R, dl-Spiro-(2-methylsulfonylfluoren-9,4'-imidazolidine)-2',5'-dione]
IC50 [2]: 5000 nM

O=C1NC(=O)C2(N1)c1ccccc1-c1cccc(F)c12 (racemic) [S, dl-Spiro-[1-fluorofluoren-9,4'-imidazolidine]-2',5'-dione]
IC50 [2]: 590 nM

O=C1NC(=O)C2(N1)c1ccccc1-c1c(F)cccc12 (racemic) [U, dl-Spiro-[4-fluorofluoren-9,4'-imidazolidine]-2',5'-dione]
IC50 [2]: 460 nM

O=C1NC(=O)C2(N1)c1ccccc1-c1ccccc12 [A, Spiro-(fluoren-9,4'-imidazolidine)-2',5'-dione]
IC50 ([1]; human): 1200 nM
inhibition at 0.1 µM [1, 7]: 13%
inhibition at 1 µM [1, 7]: 49%
inhibition at 10 µM [1, 7]: 84%
inhibition at 100 µM [1, 7]: 89%

O=C1NC(=O)C2(N1)c1cc(Cl)ccc1-c1ccc(Cl)cc12 [Compound B, Spiro-[2,7-dichlorofluoren-9,4'-imidazolidine]-2',5'-dione]
In vitro Aldose Reductase Inhibition ([1]; 10^-4, human): 65
In vitro Aldose Reductase Inhibition ([1]; 10^-5, human): 30
In vitro Aldose Reductase Inhibition ([1]; 10^-6, human): 12

O=C1NC(=O)C2(N1)c1cc([N+](=O)[O-])ccc1-c1ccc([N+](=O)[O-])cc12 [Compound D, Spiro [2,7-dinitrofluoren-9,4'-imidazolidine]-2',5'-dione]
inhibition at 1 µM [1, 7]: 20%
inhibition at 10 µM [1, 7]: 76%
inhibition at 100 µM [1, 7]: 100%

O=C1NC(=O)C2(N1)c1cc(Br)ccc1-c1ccc(Br)cc12 [F, Spiro-[2,7-dibromofluoren-9,4'-imidazolidine]-2',5'-dione]
inhibition at 10 µM [2]: 94%
inhibition at 1 µM [2]: 76%
inhibition at 0.1 µM [2]: 55%
inhibition at 0.01 µM [2]: 12%

Nc1ccc2c(c1)C1(NC(=O)NC1=O)c1cc(N)ccc1-2 [I, Spiro-[2,7-diaminofluoren-9,4'-imidazolidine]-2',5'-dione]
inhibition at 100 µM [1, 4]: 50%
inhibition at 10 µM [1, 5]: 25%
inhibition at 1 µM [1, 6]: 10%

O=C1NC(=O)C2(CCOc3ccc(F)cc32)N1 (stereo not shown) [Sarges Resolved, dSpiro-(6-fluorochroman-4,4imidazolidine)-2',5dione, reference compound]
activity against human aldose reductase as compared to rat aldose reductase ([1]; human vs rat): one fourth

O=C1NC(=O)C2(N1)c1cc(F)ccc1Oc1ccc(F)cc12 [spiro-(2,7-difluroxanthen-9,4'-imidazolidine)-2',5'-dione]
activity as aldose reductase inhibitors relative to corresponding tetracyclic fluorene compounds [3]: unexpectedly less active

O=C1NC(=O)C2(N1)c1ccccc1Oc1ccccc12 [spiro-(xanthen-9,4'-imidazolidine)-2',5'-dione]
activity as aldose reductase inhibitors relative to corresponding tetracyclic fluorene compounds [3]: unexpectedly less active
